The test system of this assay is NCI-H196 complex spheroid growth, percent test/control. The assay can be described thus: Anticancer human tumor NCI-H196 cell line growth inhibition [AhR].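 As to all read-outs here: seven days of drug exposure starting three days after plating.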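 As to viability, T/C: 100% = DMSO vehicle control wells.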 As to conditions: for viability, T/C: stronger effect = lower value. Put shortly:
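Complex tumor spheroids co-cultured with HUVEC and human MSC stroma; AhR antagonists tested in combination with standard-of-care and investigational agents. Top concentration at or near clinical Cmax (else 10 microM), half-log dilutions; growth expressed as percent test/control.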

[1] abbreviates: curve of first compound, second compound 0.1 µM.
[2] abbreviates: curve of first compound, second compound 0.316 µM.
The mark [3] stands for this setting: curve of first compound, second compound 1 µM.
The mark [4] stands for this setting: curve of first compound, second compound 3.16 µM.
Where [5] appears, read: curve of first compound, second compound 10 µM.
Setting [6] is: second compound 0.1 µM, first compound 0.0316 µM.
The mark [7] stands for this setting: second compound 0.1 µM, first compound 0.1 µM.
Where [8] appears, read: second compound 0.1 µM, first compound 0.316 µM.
Where [9] appears, read: second compound 0.1 µM, first compound 1 µM.
[10] abbreviates: second compound 0.316 µM, first compound 0.0316 µM.
Where [11] appears, read: second compound 0.316 µM, first compound 0.1 µM.
Setting [12] is: second compound 0.316 µM, first compound 0.316 µM.
Where [13] appears, read: second compound 0.316 µM, first compound 1 µM.
The mark [14] stands for this setting: second compound 1 µM, first compound 0.0316 µM.
[15] abbreviates: second compound 1 µM, first compound 0.1 µM.
[16] abbreviates: second compound 1 µM, first compound 0.316 µM.
Where [17] appears, read: second compound 1 µM, first compound 1 µM.
[18] abbreviates: second compound 3.16 µM, first compound 0.0316 µM.
Where [19] appears, read: second compound 3.16 µM, first compound 0.1 µM.
Setting [20] is: second compound 3.16 µM, first compound 0.316 µM.
Setting [21] is: second compound 3.16 µM, first compound 1 µM.
[22] abbreviates: second compound 10 µM, first compound 0.0316 µM.
The mark [23] stands for this setting: second compound 10 µM, first compound 0.1 µM.
The mark [24] stands for this setting: second compound 10 µM, first compound 0.316 µM.
The mark [25] stands for this setting: second compound 10 µM, first compound 1 µM.

“And” between values parts separate entries of the source, which are not always exact repeats. Identical values can stand only once.

For orientation: IC50 means the midpoint of a concentration-inhibition curve. A word on the viability, T/C: it is the result in the treated group divided by that in the control group, in per cent. As for `Nc1ncn(C2CC(O)C(CO)O2)c(=O)n1` (stereo not drawn) + CC(CO)NC(=O)c1cc(-c2ccc(Cl)cc2)nn(-c2cnn(C)c2)c1=O, the IC50 under setting [1] was greater than 1000 nM; the IC50 under setting [2] was greater than 1000 nM; the IC50 under setting [3] was greater than 1000 nM; the IC50 under setting [4] was greater than 1000 nM; the IC50 under setting [5] was greater than 1000 nM. For the same molecule, the viability, T/C reads like this: (second compound 0.1 µM, first compound 0.00316 µM) 112%; (second compound 0.1 µM, first compound 0.01 µM) 117%; under setting [6], 105%; under setting [7], 106%; under setting [8], 120%; under setting [9], 126%. Besides, the viability, T/C runs as follows: (second compound 0.316 µM, first compound 0.00316 µM) 107%; (second compound 0.316 µM, first compound 0.01 µM) 116%; under setting [10], 114%; under setting [11], 107%; under setting [12], 114%; under setting [13], 120%. Also, the viability, T/C (second compound 1 µM, first compound 0.00316 µM) was 120%; the viability, T/C (second compound 1 µM, first compound 0.01 µM) was 118%; the viability, T/C under setting [14] was 128%; the viability, T/C under setting [15] is 108%; the viability, T/C under setting [16] is 110%; the viability, T/C under setting [17] was 115%. In addition, the viability, T/C reads like this: (second compound 3.16 µM, first compound 0.00316 µM) 126%; (second compound 3.16 µM, first compound 0.01 µM) 130%; under setting [18], 120%; under setting [19], 104%; under setting [20], 121%; under setting [21], 115%. The viability, T/C runs as follows: (second compound 10 µM, first compound 0.00316 µM) 141%; (second compound 10 µM, first compound 0.01 µM) 119%; under setting [22], 137%; under setting [23], 114%; under setting [24], 133%; under setting [25], 116%.

As for `CC[C@@]1(O)C(=O)OCc2c1cc1n(c2=O)Cc2cc3c(CN(C)C)c(O)ccc3nc2-1`, the viability, T/C was 105% and 99.9% and 103% (compound 0.000316 µM); 110% and 104% and 107% (compound 0.001 µM); 89.1% and 98% and 101% (compound 0.00316 µM); 101% and 94% and 103% (compound 0.01 µM); 116% and 105% and 106% (compound 0.0316 µM); 108% and 101% and 104% (compound 0.1 µM). Moreover, the IC50 (curve of compound) is greater than 100 nM.

For the molecule `Nc1ncn(C2CC(O)C(CO)S2)c(=O)n1` (stereo not drawn) + CC(CO)NC(=O)c1cc(-c2ccc(Cl)cc2)nn(-c2cnn(C)c2)c1=O, the IC50 is, setting by setting: under setting [1], greater than 300 nM; under setting [2], greater than 300 nM; under setting [3], greater than 300 nM; under setting [4], greater than 300 nM; under setting [5], greater than 300 nM. Besides, the viability, T/C runs as follows: (second compound 0.1 µM, first compound 0.000949 µM) 104%; (second compound 0.1 µM, first compound 0.003 µM) 94.2%; (second compound 0.1 µM, first compound 0.00949 µM) 103%; (second compound 0.1 µM, first compound 0.03 µM) 108%; (second compound 0.1 µM, first compound 0.0949 µM) 116%; (second compound 0.1 µM, first compound 0.3 µM) 103%. Moreover, the viability, T/C was 105% (second compound 0.316 µM, first compound 0.000949 µM); 104% (second compound 0.316 µM, first compound 0.003 µM); 94.2% (second compound 0.316 µM, first compound 0.00949 µM); 101% (second compound 0.316 µM, first compound 0.03 µM); 113% (second compound 0.316 µM, first compound 0.0949 µM); 105% (second compound 0.316 µM, first compound 0.3 µM). Further, the viability, T/C is 107% (second compound 1 µM, first compound 0.000949 µM); 104% (second compound 1 µM, first compound 0.003 µM); 112% (second compound 1 µM, first compound 0.00949 µM); 110% (second compound 1 µM, first compound 0.03 µM); 112% (second compound 1 µM, first compound 0.0949 µM); 118% (second compound 1 µM, first compound 0.3 µM). In addition, the viability, T/C is 106% (second compound 3.16 µM, first compound 0.000949 µM); 101% (second compound 3.16 µM, first compound 0.003 µM); 110% (second compound 3.16 µM, first compound 0.00949 µM); 114% (second compound 3.16 µM, first compound 0.03 µM); 120% (second compound 3.16 µM, first compound 0.0949 µM); 127% (second compound 3.16 µM, first compound 0.3 µM). Moreover, the viability, T/C runs as follows: (second compound 10 µM, first compound 0.000949 µM) 108%; (second compound 10 µM, first compound 0.003 µM) 116%; (second compound 10 µM, first compound 0.00949 µM) 118%; (second compound 10 µM, first compound 0.03 µM) 114%; (second compound 10 µM, first compound 0.0949 µM) 111%; (second compound 10 µM, first compound 0.3 µM) 112%.

As to `Nc1ccn(C2OC(CO)C(O)C2(F)F)c(=O)n1` (stereo not drawn), the viability, T/C was 72.3% and 95.5% and 90.8% (compound 0.0316 µM); 57.2% and 87.9% and 86.6% (compound 0.1 µM); 46.1% and 58.9% and 65.1% (compound 0.316 µM); 50.2% and 56.8% and 62.2% (compound 1 µM); 61.4% and 61.8% and 66.2% (compound 3.16 µM); 56.5% and 68.2% and 66.8% (compound 10 µM). For the same molecule, the half-maximal inhibitory concentration (IC50) (curve of compound) is 10000 nM and > 10000 nM.

Consider `O=C(c1cc(Cc2n[nH]c(=O)c3ccccc23)ccc1F)N1CCN(C(=O)C2CC2)CC1` + CC(CO)NC(=O)c1cc(-c2ccc(Cl)cc2)nn(-c2cnn(C)c2)c1=O, for which the IC50 is greater than 10000 nM under setting [1]; greater than 10000 nM under setting [2]; greater than 10000 nM under setting [3]; greater than 10000 nM under setting [4]; greater than 10000 nM under setting [5]. Further, the viability, T/C under setting [6] is 109%; the viability, T/C under setting [7] was 114%; the viability, T/C under setting [8] is 99.8%; the viability, T/C under setting [9] was 93.3%; the viability, T/C (second compound 0.1 µM, first compound 3.16 µM) was 106%; the viability, T/C (second compound 0.1 µM, first compound 10 µM) was 96.3%. The viability, T/C is 103% under setting [10]; 109% under setting [11]; 103% under setting [12]; 102% under setting [13]; 105% (second compound 0.316 µM, first compound 3.16 µM); 96.8% (second compound 0.316 µM, first compound 10 µM). Also, the viability, T/C is 105% under setting [14]; 102% under setting [15]; 99.7% under setting [16]; 102% under setting [17]; 102% (second compound 1 µM, first compound 3.16 µM); 98.7% (second compound 1 µM, first compound 10 µM). Further, the viability, T/C runs as follows: under setting [18], 101%; under setting [19], 103%; under setting [20], 107%; under setting [21], 98.9%; (second compound 3.16 µM, first compound 3.16 µM) 109%; (second compound 3.16 µM, first compound 10 µM) 94.9%. The viability, T/C under setting [22] was 113%; the viability, T/C under setting [23] is 103%; the viability, T/C under setting [24] was 109%; the viability, T/C under setting [25] was 109%; the viability, T/C (second compound 10 µM, first compound 3.16 µM) was 109%; the viability, T/C (second compound 10 µM, first compound 10 µM) is 102%.

As to `Nc1ccccc1NC(=O)c1ccc(CNC(=O)OCc2cccnc2)cc1`, the viability, T/C is 84.5% and 90.6% and 85.8% (compound 0.0316 µM); 73.3% and 82.2% and 79.5% (compound 0.1 µM); 59.8% and 65.2% and 60.3% (compound 0.316 µM); 35.9% and 48.4% and 33.5% (compound 1 µM); 15.2% and 17.5% and 16.5% (compound 3.16 µM); 0.66% and 0.89% and 0.63% (compound 10 µM). For the same molecule, the IC50 (curve of compound) was 492 nM and 773 nM and 509 nM.

As to `CC(C)c1c(-c2ccccc2)nc2c(C#N)c[nH]n2c1=O`, the viability, T/C runs as follows: (compound 0.0316 µM) 97.3% and 97% and 111%; (compound 0.1 µM) 104% and 102% and 106%; (compound 0.316 µM) 109% and 92.1% and 112%; (compound 1 µM) 102% (2×) and 101%; (compound 3.16 µM) 101% and 102% and 110%; (compound 10 µM) 103% and 97.7% and 96.4%. Besides, where the note is “curve of compound”, the IC50 was greater than 10000 nM.

For the origin of these results see PubChem BioAssay AID1919016 (Molecular Pharmacology Branch, DTP, NCI, 2023).
